Calls of active or inactive are those of the source. The rule behind the calls is not given here.
How the values were obtained:
Rattus norvegicus [1] = test: (§1) In vivo inhibition of MSU-induced pyroptosis in Sprague-Dawley rat model of acute gout arthritis assessed as caspase+/PI- macrophage cells in synovial tissue at 1 mg/kg, ia administered 1 hr before MSU challenge and measured upto 24 hrs by PI staining based flow cytometric analysis (reference value: 21.9 %); format: functional; parameters: scale not given: the % may be the effect or the level left
[2] = Metabolic stability in human liver microsomes assessed as half life measured upto 60 mins by LC/MS-MS analysis; format: ADME, Microsome
[3] = target: T1, Bromodomain-containing protein 4 (Homo sapiens, UniProt O60885); test: Inhibition of BRD4 BD1 in human THP1 cells assessed as Inhibition of MSU-induced IL-1beta secretion at 1 uM incubated for 1 hr followed by MSU treatment and measured after 12 hrs by ELISA; format: cell-based
Rattus norvegicus [4] = test: In vivo inhibition of MSU-induced NLRP3 inflammasome in synovial tissue of Sprague-Dawley rat model of acute gout arthritis at 1 mg/kg, ia administered 1 hr before MSU challenge and measured upto 24 hrs by immunofluorescence based confocal microscopy analysis; format: functional, organism-based
Rattus norvegicus [5] = test: In vivo inhibition of MSU-induced NF-kappaB P65 phosphorylation in synovial tissue of Sprague-Dawley rat model of acute gout arthritis at 1 mg/kg, ia administered 1 hr before MSU challenge and measured upto 24 hrs by Western blot analysis; format: functional, organism-based
[6] = Permeability of compound at 10 uM by PAMPA assay; format: ADME; details: read-out: permeability
Rattus norvegicus [7] = test: In vivo inhibition of MSU-induced NLRP3 inflammasome in synovial tissue of Sprague-Dawley rat model of acute gout arthritis at 1 mg/kg, ia administered 1 hr before MSU challenge and measured upto 24 hrs by Western blot analysis; format: functional, organism-based
[8] = target: T1, Bromodomain-containing protein 4; test: Inhibition of BRD4 BD1 in human THP1 cells assessed as inhibition of MSU-induced pyroptosis by measuring caspase+/PI- cells at 1 uM incubated for 1 hr followed by MSU treatment and measured after 12 hrs by PI/caspase 1 double staining based flow cytometric analysis (reference value: 4.2 %); format: cell-based; parameters: scale not given: the % may be the effect or the level left
Homo sapiens [9] = species: Homo sapiens; test: Selectivity ratio of Kd for immobilized DNA-tagged human BRD4 BD1 to Kd for immobilized DNA-tagged human BRD4 BD2 by BROMOscan analysis
Rattus norvegicus [10] = test: Anti-arthritic activity in Sprague-Dawley rat model of acute gout arthritis assessed as reduction in MSU-induced joint swelling at 1 mg/kg, ia administered 1 hr before MSU challenge and measured upto 24 hrs; format: functional, organism-based
[11] = target: Bromodomain-containing protein 2 (Homo sapiens, UniProt P25440); test: Displacement of tetra-acetylated histone H4 peptide (1-21) from BRD2 BD1 (unknown origin) incubated for 30 mins followed by further incubation with tetra-acetylated histone H4 peptide (1-21) for 30 mins by Alphascreen assay
[12] = target: T1, Bromodomain-containing protein 4; test: Displacement of tetra-acetylated histone H4 peptide (1-21) from recombinant human N-terminal His-tagged BRD4 BD2 (349 to 460 residues) expressed in Escherichia coli incubated for 30 mins followed by further incubation with tetra-acetylated histone H4 peptide (1-21) for 30 mins by Alphascreen assay
Homo sapiens [13] = species: Homo sapiens; test: Selectivity index, ratio of IC50 for BRD3 BD1 (unknown origin) to IC50 for recombinant human N-terminal His-tagged BRD4 BD1 (44 to 170 residues) expressed in Escherichia coli by AlphaScreen assay
Homo sapiens [14] = species: Homo sapiens; test: Selectivity index, ratio of IC50 for BRD2 BD2 (unknown origin) to IC50 for BRD2 BD1 (unknown origin) by AlphaScreen assay
[15] = target: Bromodomain testis-specific protein (Homo sapiens, UniProt Q58F21); test: Displacement of tetra-acetylated histone H4 peptide (1-21) from BRDT BD1 (unknown origin) incubated for 30 mins followed by further incubation with tetra-acetylated histone H4 peptide (1-21) for 30 mins by Alphascreen assay
Rattus norvegicus [16] = test: as §1, with “caspase+/PI+” for “caspase+/PI-”, “5.79” for “21.9”; format: functional; parameters: scale not given: the % may be the effect or the level left
[17] = target: T1, Bromodomain-containing protein 4; test: Inhibition of BRD4 BD1 in human THP1 cells assessed as inhibition of MSU-induced pyroptosis by measuring caspase-/PI- cells at 1 uM incubated for 1 hr followed by MSU treatment and measured after 12 hrs by PI/caspase 1 double staining based flow cytometric analysis (reference value: 76.2 %); format: cell-based; parameters: scale not given: the % may be the effect or the level left
[18] = target: T1, Bromodomain-containing protein 4; test: Inhibition of BRD4 BD1 in human THP1 cells assessed as inhibition of MSU-induced pyroptosis by measuring caspase+/PI+ cells at 1 uM incubated for 1 hr followed by MSU treatment and measured after 12 hrs by PI/caspase 1 double staining based flow cytometric analysis (reference value: 12.7 %); format: cell-based; parameters: scale not given: the % may be the effect or the level left
Homo sapiens [19] = species: Homo sapiens; test: Selectivity index, ratio of IC50 for BRD3 BD2 (unknown origin) […] (unknown origin) by AlphaScreen assay
Rattus norvegicus [20] = test: In vivo inhibition of MSU-induced NLRP3 and ASC co-localization in synovial tissue of Sprague-Dawley rat model of acute gout arthritis at 1 mg/kg, ia administered 1 hr before MSU challenge and measured upto 24 hrs by immunofluorescence based confocal microscopy analysis; format: functional, organism-based
Homo sapiens [21] = species: Homo sapiens; test: Selectivity index, ratio of IC50 for BRD3 BD2 (unknown origin) to IC50 for recombinant human N-terminal His-tagged BRD4 BD1 (44 to 170 residues) expressed in Escherichia coli by AlphaScreen assay
Rattus norvegicus [22] = test: Anti-arthritic activity in Sprague-Dawley rat model of acute gout arthritis assessed as reduction in MSU-induced neutrophil infiltration in synovial tissue at 1 mg/kg, ia administered 1 hr before MSU challenge and measured upto 24 hrs hematoxylin and eosin staining based histopathological analysis; format: functional, organism-based
[23] = target: T1, Bromodomain-containing protein 4; test: Inhibition of BRD4 BD1 in human THP1 cells assessed as inhibition of MSU-induced co-localization of NLRP3 and ASC at 1 uM incubated for 1 hr followed by MSU treatment and measured after 12 hrs by immunofluorescence based confocal microscopy analysis; format: cell-based
[24] = target: T1, Bromodomain-containing protein 4; test: Inhibition of BRD4 BD1 in human THP1 cells assessed as inhibition of MSU-induced NF-kappaB P65 phosphorylation at 1 uM incubated for 1 hr followed by MSU treatment and measured after 12 hrs by Western blot analysis; format: cell-based
[25] = target: T1, Bromodomain-containing protein 4; test: Inhibition of MSU-induced BRD4 expression in human THP1 cells at 1 uM incubated for 1 hr followed by MSU treatment and measured after 12 hrs by Western blot analysis; format: cell-based
[26] = Metabolic stability in human assessed as intrinsic hepatic clearance by LC/MS-MS analysis; format: ADME; details: read-out: CLH
[27] = Metabolic stability in monkey liver microsomes assessed as half life measured upto 60 mins by LC/MS-MS analysis; format: ADME, Macaca mulatta, Microsome; details: rhesus monkey
[28] = Metabolic stability in dog liver microsomes assessed as half life measured upto 60 mins by LC/MS-MS analysis; format: ADME, Canis lupus familiaris, Microsome
[29] = target: T1, Bromodomain-containing protein 4; test: Inhibition of BRD4 BD1 in human THP1 cells assessed as inhibition of MSU-induced pyroptosis by measuring caspase-/PI+ cells at 1 uM incubated for 1 hr followed by MSU treatment and measured after 12 hrs by PI/caspase 1 double staining based flow cytometric analysis (reference value: 6.8 %); format: cell-based; parameters: scale not given: the % may be the effect or the level left
[30] = target: T1, Bromodomain-containing protein 4; test: Inhibition of BRD4 BD1 in human THP1 cells assessed as inhibition of MSU-induced NLRP3 inflammasome at 1 uM incubated for 1 hr followed by MSU treatment and measured after 12 hrs by immunofluorescence based confocal microscopy analysis; format: cell-based

Sequence of Bromodomain-containing protein 2 (P25440 whole entry, the tested form may be a part): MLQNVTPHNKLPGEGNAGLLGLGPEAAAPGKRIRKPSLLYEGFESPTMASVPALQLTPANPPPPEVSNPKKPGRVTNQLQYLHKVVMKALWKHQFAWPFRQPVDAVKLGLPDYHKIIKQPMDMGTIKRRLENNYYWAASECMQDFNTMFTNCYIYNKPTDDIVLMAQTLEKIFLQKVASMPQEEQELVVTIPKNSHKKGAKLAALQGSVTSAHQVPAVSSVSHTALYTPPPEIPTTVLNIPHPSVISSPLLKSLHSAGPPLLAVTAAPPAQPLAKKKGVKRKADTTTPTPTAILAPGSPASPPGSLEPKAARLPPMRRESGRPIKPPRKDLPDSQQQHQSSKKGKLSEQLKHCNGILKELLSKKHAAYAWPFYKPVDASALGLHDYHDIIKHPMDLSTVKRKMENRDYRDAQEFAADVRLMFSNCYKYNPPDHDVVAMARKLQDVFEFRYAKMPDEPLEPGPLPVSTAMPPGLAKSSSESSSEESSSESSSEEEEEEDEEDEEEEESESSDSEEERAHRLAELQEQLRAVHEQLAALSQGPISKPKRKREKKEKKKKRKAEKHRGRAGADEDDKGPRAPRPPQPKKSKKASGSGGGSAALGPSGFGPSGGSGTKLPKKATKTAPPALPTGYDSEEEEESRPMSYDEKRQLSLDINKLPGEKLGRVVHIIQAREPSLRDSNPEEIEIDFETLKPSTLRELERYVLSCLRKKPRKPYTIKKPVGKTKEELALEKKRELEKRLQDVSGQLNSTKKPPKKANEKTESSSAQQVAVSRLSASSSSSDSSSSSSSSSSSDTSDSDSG

Compound: COc1ccccc1S(=O)(=O)Nc1ccc2c3c(cc(-n4cnc(C)c4)nc13)C(=O)N2C
- Activity (Rattus norvegicus [1]): 0.43%
- half-life [2]: 14.8 min
- inhibition [3]: Active
- inhibition (Rattus norvegicus [4]): Active
- inhibition (Rattus norvegicus [5]): Active
- Papp at 10 µM [6]: 0.117 ×10⁻⁶ cm/s
- inhibition (Rattus norvegicus [7]): Active
- Activity [8]: 4.1%
- Selectivity ratio (Homo sapiens [9]): 238
- inhibition (Rattus norvegicus [10]): Active
- IC50 [11]: 8.95 µM
- IC50 [12]: 12.1 µM
- Ratio IC50 (Homo sapiens [13]): 2.8
- Ratio IC50 (Homo sapiens [14]): 2.4
- IC50 [15]: 0.357 µM
- Activity (Rattus norvegicus [16]): 1.03%
- Activity [17]: 86.6%
- Activity [18]: 4.4%
- Ratio IC50 (Homo sapiens [19]): 202
- inhibition (Rattus norvegicus [20]): Active
- Ratio IC50 (Homo sapiens [21]): 568
- inhibition (Rattus norvegicus [22]): Active
- inhibition [23]: Active
- inhibition [24]: Active
- inhibition [25]: Active
- CLint scaled [26]: 88.4 mL/min/kg
- half-life [27]: 10.3 min
- half-life [28]: 10.4 min
- Activity [29]: 4.9%
- inhibition [30]: Active

From ChEMBL document CHEMBL4354830, “Discovery of Benzo[cd]indol-2(1H)-ones and Pyrrolo[4,3,2-de]quinolin-2(1H)-ones as Bromodomain and Extra-Terminal Domain (BET) Inhibitors with Selectivity for the First Bromodomain with Potential High Efficiency against Acute Gouty Arthritis” (J Med Chem, 2019)
